In ChEMBL document CHEMBL3044788, “α-(Substituted-phenoxyacetoxy)-α-heterocyclylmethylphosphonates: synthesis, herbicidal activity, inhibition on pyruvate dehydrogenase complex (PDHc), and application as postemergent herbicide against broadleaf weeds” (J Agric Food Chem, 2013):

How the values were obtained:
Format in all cases: functional
Eclipta prostrata [1] = test: Herbicidal activity against two to three-leaf stage Eclipta prostrata assessed as inhibition of plant growth at 450 g/ha in greenhouse by post-emergence herbicidal activity assay; conditions: read-out: GI
[2] = test system: Brassica rapa subsp. oleifera; test: Herbicidal activity against two to three-leaf stage Brassica rapa subsp. oleifera assessed as inhibition of plant growth at 450 g/ha in greenhouse by postemergence herbicidal activity assay; conditions: post-emergence, read-out: GI
Eclipta prostrata [3] = test: Herbicidal activity against two to three-leaf stage Eclipta prostrata assessed as inhibition of plant growth at 150 g/ha in greenhouse by post-emergence herbicidal activity assay; conditions: read-out: GI
[4] = test system: Brassica rapa subsp. oleifera; test: Herbicidal activity against two to three-leaf stage Brassica rapa subsp. oleifera assessed as inhibition of plant growth at 150 g/ha in greenhouse by postemergence herbicidal activity assay; conditions: post-emergence, read-out: GI
Amaranthus retroflexus [5] = test: Herbicidal activity against 2 to 3 leaf stage Amaranthus retroflexus assessed as inhibition of plant growth at 450 g/ha in greenhouse by postemergence herbicidal activity assay; conditions: post-emergence, read-out: GI
Amaranthus retroflexus [6] = test: Herbicidal activity against 2 to 3 leaf stage Amaranthus retroflexus assessed as inhibition of plant growth at 150 g/ha in greenhouse by postemergence herbicidal activity assay; conditions: post-emergence, read-out: GI
Abutilon theophrasti [7] = test: Herbicidal activity against two to three-leaf stage Abutilon theophrasti (velvetleaf) assessed as inhibition of plant growth at 150 g/ha in greenhouse by post-emergence herbicidal activity assay; conditions: read-out: GI
Abutilon theophrasti [8] = test: Herbicidal activity against two to three-leaf stage Abutilon theophrasti (velvetleaf) assessed as inhibition of plant growth at 450 g/ha in greenhouse by post-emergence herbicidal activity assay; conditions: read-out: GI

| Structure (SMILES) | inhibition of growth at 450 g/ha (Eclipta prostrata [1]) [%] | inhibition of growth at 450 g/ha [2] [%] | inhibition of growth at 150 g/ha (Eclipta prostrata [3]) [%] | inhibition of growth at 150 g/ha [4] [%] | inhibition of growth at 450 g/ha (Amaranthus retroflexus [5]) [%] | inhibition of growth at 150 g/ha (Amaranthus retroflexus [6]) [%] | inhibition of growth at 150 g/ha (Abutilon theophrasti [7]) [%] | inhibition of growth at 450 g/ha (Abutilon theophrasti [8]) [%] |
| --- | --- | --- | --- | --- | --- | --- | --- | --- |
| COP(=O)(OC)C(OC(=O)COc1ccc(Cl)cc1Cl)c1cccs1 (stereo not drawn) | 100 | 100 | 80 | 90 | 100 | 90 | 90 | 100 |
| COP(=O)(OC)C(OC(=O)COc1ccc(Cl)cc1)c1cccs1 (stereo not drawn) | 30 | 90 | 70 | 70 | 80 | 70 | 70 | 85 |
| COP(=O)(OC)C(OC(=O)COc1cccc(Cl)c1Cl)c1cccs1 (stereo not drawn) | 85 | 40 | 40 | 0 | 60 | 40 | 0 | 40 |
| COP(=O)(OC)C(OC(=O)COc1ccc(Cl)cc1C)c1cccs1 (stereo not drawn) | 100 | 95 | 75 | 80 | 100 | 80 | 60 | 90 |
| COP(=O)(OC)C(OC(=O)COc1ccc(Cl)c(C)c1)c1cccs1 (stereo not drawn) | 70 | 60 | 50 | 0 | 60 | 50 | 0 | 60 |
| COP(=O)(OC)C(OC(=O)COc1ccc(Cl)cc1)c1ccco1 (stereo not drawn) | – | – | 70 | 75 | – | 70 | 75 | – |
| COP(=O)(OC)C(OC(=O)COc1cccc(Cl)c1Cl)c1ccco1 (stereo not drawn) | – | – | 35 | 30 | – | 25 | 20 | – |
| COP(=O)(OC)C(OC(=O)COc1ccc(Cl)cc1C)c1ccco1 (stereo not drawn) | – | – | 60 | 85 | – | 80 | 80 | – |
| COP(=O)(OC)C(OC(=O)COc1ccc(Cl)c(C)c1)c1ccco1 (stereo not drawn) | – | – | 75 | 80 | – | 80 | 80 | – |
| COP(=O)(OC)C(OC(=O)COc1ccc(F)cc1F)c1ccco1 (stereo not drawn) | – | – | 40 | 60 | – | 50 | 40 | – |
| COP(=O)(OC)C(OC(=O)COc1cc(Cl)c(Cl)cc1Cl)c1ccco1 (stereo not drawn) | – | – | 80 | 85 | – | 75 | 75 | – |
| COP(=O)(OC)C(OC(=O)COc1cccc(C)c1C)c1cccs1 (stereo not drawn) | 70 | 0 | 0 | 0 | 40 | 40 | 0 | 0 |
| COP(=O)(OC)C(OC(=O)COc1ccc(Br)cc1)c1cccs1 (stereo not drawn) | 60 | 75 | 60 | 70 | 60 | 50 | 50 | 70 |
| COP(=O)(OC)C(OC(=O)COc1ccccc1Cl)c1cccs1 (stereo not drawn) | 85 | 30 | 0 | 0 | 50 | 0 | 0 | 40 |
| COP(=O)(OC)C(OC(=O)COc1ccc(C#N)cc1)c1cccs1 (stereo not drawn) | 60 | 40 | 0 | 30 | 40 | 40 | 30 | 40 |
| COP(=O)(OC)C(OC(=O)COc1cccc(C(F)(F)F)c1)c1cccs1 (stereo not drawn) | – | – | 15 | 30 | – | 20 | 20 | – |
| COP(=O)(OC)C(OC(=O)COc1ccc(C(F)(F)F)cc1)c1cccs1 (stereo not drawn) | – | – | 30 | 20 | – | 20 | 15 | – |
| COP(=O)(OC)C(OC(=O)COc1ccccc1F)c1cccs1 (stereo not drawn) | – | – | 20 | 0 | – | 15 | 0 | – |
